# Measured values published in paper PMC9114170, “Investigation of the Role of Hydrophobic Amino Acids on the Structure-Activity Relationship in the Antimicrobial Venom Peptide Ponericin L1” (The Journal of membrane biology, 2021).
# Ends that are not written are not given here.
# Key:
# [1] = system: Gram-positive and Gram-negative strains; assay: Antimicrobial activity over the MIC panel; format: cell-based; conditions: highest concentration tested 15μM
# Procedure: Six different strains of bacteria were streaked on LB-Miller agar plates from a frozen glycerol stock derived from the original samples shipped from CGSC (Coli Genetic Stock Center, Yale University) or ATCC (American Type Culture Collection) (Escherichia coli D31 CGSC 5165 ([Burman, Nordstrom & Boman, 1968]), Staphylococcus aureus ATCC 35556. Pseudomonas aeruginosa PA-01 ATCC 47085, Acinetobacter baumannii ATCC 19606). For each of the strains a liquid overnight culture was prepared using a single colony into fresh LB broth and placed in a shaking incubator for ~ 18 hours at 37 C at 225 rpm. After the incubation period, a 1:200 dilution was made in fresh LB broth and then used for experimentation. Minimal Inhibitory Concentration (MIC) determinations were performed using mid-log phase bacteria diluted to 5 x 10^5 CFU/mL. Next, 90 μL of this diluted culture was then pipetted into a sterile 96-well plate that contains serially diluted aliquots of the peptide variants to consist of a total volume of 100 μL. This plate was then incubated for 18 hours at 37 C. Bacterial growth was determined by taking an OD600 measurement using a Spectramax M5 multimode plate reader post incubation. Minimal Bactericidal Concentration (MBC) was performed by taking 1 μL of the culture from the MIC plate and then pipetting it on to a fresh LB agar plate. After plating this culture, the plate was then incubated overnight at 37 C. MBC was determined by the growth or the lack of growth from each well on the agar plate.
# The ability of L1 and the hydrophobic variants to act as antimicrobials was investigated using the Minimal Inhibitory Concentration (MIC) and Minimal Bactericidal Concentration (MBC) assays as previously described ([Wiegand, Hilpert & Hancock, 2008]). The MIC is determined as the lowest concentration of peptide required to inhibit bacterial growth in solution, while the MBC is the lowest concentration required to act in a bactericidal mechanism (as opposed to bacteriostatic) and is determined by plating MIC cultures on antimicrobial-free media. Peptides were screened against E. coli, S. aureus, A. baumannii, P. aeruginosa, B. subtilis, and K. pneumoniae.
# [2] = system: E. coli D31 outer membrane; assay: E. coli outer membrane permeabilization (nitrocefin / β-lactamase); format: cell-based, Escherichia coli; conditions: E. coli D31, nitrocefin hydrolysis, absorbance 486 nm, up to 90 minutes; peptide serially diluted from 15 μM; average of three replicates
# Procedure: A single colony of E.coli D31 was taken from an LB agar plate and inoculated into fresh LB broth with 100 μg/mL ampicillin (LB-Amp), then place in a shaking incubator at 37 C (225 rpm) for ~ 18 hours. After the incubation period 100 μL was taken from the culture and diluted with 25 mL of fresh LB-Amp. The dilution was further incubated in the same conditions until an OD600 of 0.2 to 0.4 was obtained. Once the specified OD600 was reached the culture was then centrifuged at 2500 rpm for 15 minutes in a tabletop clinical centrifuge. The supernatant was discarded and then an equal amount of PBS (100 mM NaH2PO4, 200 mM NaCl, pH7) was used to resuspend the pellet.
# Experimental samples were prepared in a 96-well plate in the order as follows: 10 μL of the six peptide variants that were serially diluted starting a concentration of 15 μM with the exception of the last row (used as a negative control 10 μL of 0.01% acetic acid). 80 μL of the resuspended bacteria culture, and 10 μL of 50 μg/mL nitrocefin in PBS. The absorbance was recorded at 486 nm in 5-minute intervals for a total run time of 90 minutes immediately following the addition of nitrocefin. The antimicrobial agent polymyxin B was used as a positive control. The values presented are the average of three replicates.
# As the mechanism of action of the L1 venom peptide is likely a membrane disruptive mechanism, the effect of the hydrophobic substitutions on membrane permeabilization was investigated using E.coli and ovine red blood cells (RBCs). The permeabilization of the E. coli outer membrane was assayed using an enzyme-substrate pair in which the enzyme (β-lactamase) is located in the periplasmic space while the substrate (the chromogenic nitrocefin) is added to the exterior of cells. […] Similarly, the permeabilization of the E. coli inner membrane was assessed using a cytoplasmic enzyme, β-galactosidase, and a chromogenic substrate, ONPG. […]
# [3] = Acrylamide quenching of Trp fluorescence in absence and presence of lipid vesicles; format: physicochemical; conditions: 2 μM peptide in PBS pH 7.0, λex 295 nm, λem 340, average of three replicates ± SD; for Acrylamide quenching Ksv, PCPG: 3:1 DOPC:DOPG vesicles; for Acrylamide quenching Ksv, PCPG / Acrylamide quenching Ksv, PEPG / Acrylamide quenching Ksv, PC / Acrylamide quenching Ksv, PC/Chol: 250 μM lipid; for Acrylamide quenching Ksv, PEPG: 3:1 POPE:DOPG vesicles; for Acrylamide quenching Ksv, PC: DOPC vesicles; for Acrylamide quenching Ksv, PC/Chol: DOPC:Cholesterol vesicles; for Acrylamide quenching Ksv, PBS: no lipid vesicles
# Procedure: To form small unilamellar vesicles (SUVs) sonication or ethanol dilution methods were implemented ([Caputo & London, 2019]). In all cases, lipid vesicle preparation was the same. Depending on the lipid composition, appropriate volumes of lipids in chloroform were mixed in a glass tube and then allowed to dry under N2 gas for 15 minutes. The lipid films were then placed in a vacuum desiccator and allowed to dry further under a vacuum for 1 hour. For vesicles formed through ethanol dilution methods, 10 μL of pure ethanol was added to the film, and then vortex until the dissipation of the film. While continuing to vortex, the appropriate amount of PBS was added. For vesicles formed using the method of sonication, PBS was added directly to the tube while being vortexed to create multilamellar vesicles (MLVs). The MLV suspension was covered with parafilm and then placed in a high-powered bath sonicator (Avanti Lipids) and subjected to sonication for 20 minutes to create SUVs.
# Acrylamide quenching was monitored by titration of samples with 10 μL aliquots of 4M acrylamide titrated into peptide samples prepared as described above. These samples contained either or [0.25] mM total lipid. After each addition of acrylamide, Trp fluorescence intensity was measured using λex = 295 nm and λem = 340. Corrections to the emission intensity were made for background subtraction, dilutions, and inner filter effects in the excitation path as described previously. The same method to calculate Ksv was used as above.
# In order to gain more insight into the bilayer interactions, fluorescence quenching approaches were utilized. The peptides were exposed to the aqueous quencher acrylamide in solution or when bound to vesicles. […] Thus, peptide Trp exposure to the aqueous milieu can be gauged by the extent of quenching by acrylamide. Stern-Volmer quenching plots were created to analyze the data and Ksv (slopes of a linear fit to the data) are shown in Figure 4 and Table 2. […] In the case of L1L and L1I, there was a significant reduction in quenching between the solution (free) state of the peptide and when bound to anionic vesicles, but a much smaller reduction if any when interacting with zwitterionic vesicles. This is consistent with a more deeply buried Trp in anionic bilayers.
# [4] = Red edge excitation shift (REES) solution aggregation assay; format: physicochemical; conditions: 2 μM peptide in PBS pH 7.0, λex 280 to 307 nm, emission 310 to 410 nm, Trp fluorescence, average of three replicates
# Text: All fluorescence spectroscopy experiments were preformed using a JY-Horiba Fluoromax4 instrument. Excitation and emission slit widths were kept consistent at 2.5 nm. Semi-micro quartz cuvettes were utilized for each experiment. The following formula was used to calculate a spectral barycenter for each experiment: (1) B=∑λ*i/∑i where B is the barycenter, λ is the wavelength, and i is the intensity at the specified wavelength. An entire emission spectrum from 300-400 was used the carry out the calculation of barycenter.
# Red edge excitation shift (REES) experiments utilized excitation at 6 different wavelengths (λex = 280, 290, 295, 300, 305, and 307 nm) and the same emission range of 310 to 410 nm. Samples were similarly prepared as above. A blank only containing PBS buffer was used as background to correct the spectra after each addition.
# Aggregation of peptides was assessed utilizing the intrinsic fluorescence properties of the Trp residue in the L1 sequence. […] Differences in the side chain motion/dynamics of the Trp residue and the local environment around the Trp can be observed by monitoring the red-edge excitation shifts (REES). […]
# [5] = Trichloroethanol (TCE) quenching of Trp fluorescence, solution aggregation assay; format: physicochemical; conditions: 2 μM peptide in PBS pH 7.0, titration with 10M TCE, λex 280 nm, λem 340, average of three replicates
# Procedure: Trichloroethanol (TCE) quenching was monitored by titration of samples with 10 μL aliquots of 10M TCE (Alfa Aesar, Haverhill, Massachusetts) into peptide samples prepared as described above. After each addition of TCE, Trp fluorescence intensity was measured using λex = 280 nm and λem = 340. Corrections to the emission intensity were made for background subtraction and dilutions. The slope of the linear best fit equation to the data (eqn 2) was used as the Stern-Volmer quenching constant (Ksv) (2) F0/F=1+Ksv[Q] where F0 is the fluorescence intensity in the absence of quencher, and F is the fluorescence intensity in the presence of a given concentration of quencher [Q].
# The environment of the L1 Trp residue was further probed using fluorescence quenching by trichloroethanol (TCE) which selectively exerts quenching on Trp residues which are shielded from the aqueous milieu, such as at the interior of a peptide aggregate. The results are shown in Figure 2B, with the Ksv values for the quenching shown in Supplemental Table 1. […] However, considering the reduced overall hydrophobicity of this peptide and thus higher aqueous solubility, decreased TCE quenching is not surprising.
# [6] = system: Sheep red blood cells (RBCs); conditions: earlier work of the group; ref Senetra, Necelis & Caputo, 2020b; cited from earlier work
# Text: The ponerine ant, Neoponera goeldii (previously classified as Pachycondyla goeldii), produces a mixture of venom peptides known as ponericins ([Orivel et al., 2001]). These peptides have been subdivided into three sub-classes based on the amino acid sequences (L, W, and G) and contain a total of 15 independent peptide sequences. […] Among these peptides, the L1 sequence was the most poorly characterized.
Sequence,Antimicrobial activity (summary of MIC results) [1],Outer membrane permeabilization [2],"Acrylamide quenching Ksv, PCPG [3]","Acrylamide quenching Ksv, PEPG [3]","Acrylamide quenching Ksv, PC [3]","Acrylamide quenching Ksv, PC/Chol [3]","Acrylamide quenching Ksv, PBS [3]",REES total shift [4],TCE quenching of Trp fluorescence (extent) [5],Hemolytic activity [6]
IIKEIWTKMKGAGKAIIGKIKGII [L1I],broad spectrum activity,no membrane disruption above background,8.72 ± 2.09 M⁻¹,3.39 ± 2.25 M⁻¹,4.9 ± 1.51 M⁻¹,12.65 ± 0.63 M⁻¹,10.5 ± 0.67 M⁻¹,–,–,–
VVKEVWTKMKGAGKAVVGKVKGVV [L1V],no antimicrobial activity,–,16.86 ± 6.47 M⁻¹,5.64 ± 0.38 M⁻¹,4.18 ± 0.15 M⁻¹,12.19 ± 1.54 M⁻¹,12.14 ± 1.59 M⁻¹,~ 10 nm,showed the most quenching,–
AAKEAWTKMKGAGKAAAGKAKGAA [L1A],no antimicrobial activity,–,10.9 ± 0.26 M⁻¹,3.59 ± 0.58 M⁻¹,8.51 ± 0.46 M⁻¹,10.79 ± 0.27 M⁻¹,8.19 ± 0.90 M⁻¹,–,markedly lower than the others,–
"LLKELWTKMKGAGKAVLGKIKGLL [L1, ponericin L1]",–,–,–,–,–,–,–,–,–,very low level of hemolytic activity
